From ChEMBL document CHEMBL1127356, “(Fluorocyclopropyl)quinolones. 2. Synthesis and Stereochemical structure-activity relationships of chiral 7-(7-amino-5-azaspiro[2.4]heptan-5-yl)-1-(2-fluorocyclopropyl)quinolone antibacterial agents” (J Med Chem, 1994)
In brackets after ≈: the same amount, converted by molar mass.

Assays:
Enterobacter cloacae [1] = test: Minimum inhibitory concentration in vitro against […] (03400); type: functional
Klebsiella pneumoniae = test: Minimum inhibitory concentration in vitro against Klebsiella pneumoniae (type-2); type: functional
Staphylococcus aureus [2] = test: Minimum inhibitory concentration in vitro against […] (209P); type: functional
Pseudomonas aeruginosa = test: Minimum inhibitory concentration in vitro against Pseudomonas aeruginosa (32104); type: functional
Rattus norvegicus [3] = test: Urinary recovery by oral administration to rats in conjugate form of compound at 20 mg/kg; type: ADME, organism-based, Urine; set-up: dose 20 mg/kg, route oral; conditions: in vivo
Streptococcus pyogenes = test: Minimum inhibitory concentration in vitro against Streptococcus pyogenes (G36); type: functional
[4] = Maximum concentration in plasma was determined by oral administration to rats at 20 mg/kg; type: ADME, organism-based; set-up: dose 20 mg/kg, route oral; conditions: rat
[5] = tested on: Staphylococcus epidermidis; test: Minimum inhibitory concentration in vitro against […] (56556); type: functional
Enterococcus faecalis = test: Minimum inhibitory concentration in vitro against Streptococcus faecalis (ATCC 19433); type: functional
Proteus vulgaris = test: Minimum inhibitory concentration in vitro against Proteus vulgaris (08601); type: functional
Escherichia coli = test: Minimum inhibitory concentration in vitro against Escherichia coli (NIHJ); type: functional
Serratia marcescens = test: Minimum inhibitory concentration in vitro against […]; type: functional
[6] = Urinary recovery by oral administration to rats in unchanged form of compound at 20 mg/kg; type: ADME, organism-based; set-up: dose 20 mg/kg, route oral; conditions: rat, urine, read-out: Urinary recovery
Enterobacter cloacae [7] = test: Minimum inhibitory concentration in vitro against Enterobacter cloacae (03400); type: functional
[8] = Urinary recovery at 20 mg/kg was determined by oral administration to rats in unchanged form of compound; type: ADME, organism-based; set-up: dose 20 mg/kg, route oral; conditions: rat, urine, read-out: Urinary recovery
Staphylococcus aureus [9] = test: Minimum inhibitory concentration in vitro against Staphylococcus aureus (209P); type: functional
Rattus norvegicus [10] = test: Urinary recovery by oral administration to rats at 20 mg/kg in conjugate form of compound; type: ADME, organism-based, Urine; set-up: dose 20 mg/kg, route oral; conditions: in vivo
[11] = tested on: Staphylococcus epidermidis; test: Minimum inhibitory concentration in vitro against Staphylococcus epidermis (56556); type: functional
Staphylococcus aureus [12] = test: microbe, parasite or virus in culture
Description: Minimum inhibitory concentration against Streptococcus aureus (209P)

[13] = Klebsiella pneumoniae, read-out: MIC
[14] = Staphylococcus aureus, read-out: MIC
[15] = Pseudomonas aeruginosa, read-out: MIC
[16] = Streptococcus pyogenes, read-out: MIC
[17] = Staphylococcus epidermidis, read-out: MIC
[18] = Enterococcus faecalis, ATCC 19433, read-out: MIC
[19] = Proteus vulgaris, read-out: MIC
[20] = Escherichia coli, read-out: MIC
[21] = Serratia marcescens, read-out: MIC
[22] = Enterobacter cloacae, read-out: MIC

| MIC (Escherichia coli; [20]) [µg/mL] | SMILES | MIC (Klebsiella pneumoniae; [13]) [µg/mL] | MIC (Staphylococcus aureus [2]; [14]) [µg/mL] | MIC (Pseudomonas aeruginosa; [15]) [µg/mL] | MIC (Streptococcus pyogenes; [16]) [µg/mL] | MIC [5, 17] [µg/mL] | MIC (Enterococcus faecalis; [18]) [µg/mL] | MIC (Proteus vulgaris; [19]) [µg/mL] | MIC (Serratia marcescens; [21]) [µg/mL] | MIC (Enterobacter cloacae [7]; [22]) [µg/mL] | MIC (Klebsiella pneumoniae) [µg/mL] | further results |
| --- | --- | --- | --- | --- | --- | --- | --- | --- | --- | --- | --- | --- |
| < 0.006 | N[C@@H]1CCN(c2c(F)cc3c(=O)c(C(=O)O)cn(C4CC4)c3c2Cl)C1 | 0.025 (≈ 0.0683 µM) | 0.025 (≈ 0.0683 µM) | 0.05 (≈ 0.137 µM) | 0.1 (≈ 0.273 µM) | 0.05 (≈ 0.137 µM) | 0.1 (≈ 0.273 µM) | 0.006 (≈ 0.0164 µM) | 0.025 (≈ 0.0683 µM) | – | – | MIC (Enterobacter cloacae [1]): 6 ng/mL (≈ 0.0164 µM); Urinary recovery (Rattus norvegicus [3]): 5%; Cmax [4]: 3900 ng/mL; dose excreted [6]: 24% |
| 0.05 (≈ 0.128 µM) | N[C@@H]1CN(c2c(F)cc3c(=O)c(C(=O)O)cn(C4CC4)c3c2Cl)CC12CC2 | 0.05 (≈ 0.128 µM) | 0.1 (≈ 0.255 µM) | 0.39 (≈ 0.995 µM) | 0.78 (≈ 1.99 µM) | 0.1 (≈ 0.255 µM) | 0.39 (≈ 0.995 µM) | 0.05 (≈ 0.128 µM) | 0.1 (≈ 0.255 µM) | 0.05 (≈ 0.128 µM) | – | – |
| 0.013 (≈ 0.0339 µM) | N[C@H]1CCN(c2c(F)cc3c(=O)c(C(=O)O)cn([C@H]4C[C@H]4F)c3c2Cl)C1 | – | 0.025 (≈ 0.0651 µM) | 0.1 (≈ 0.261 µM) | 0.2 (≈ 0.521 µM) | 0.05 (≈ 0.13 µM) | 0.2 (≈ 0.521 µM) | 0.013 (≈ 0.0339 µM) | 0.05 (≈ 0.13 µM) | 0.025 (≈ 0.0651 µM) | 0.05 (≈ 0.13 µM) | – |
| < 0.006 | N[C@H]1CN(c2c(F)cc3c(=O)c(C(=O)O)cn(C4CC4)c3c2Cl)CC12CC2 | 0.025 (≈ 0.0638 µM) | 0.013 (≈ 0.0332 µM) | 0.05 (≈ 0.128 µM) | 0.1 (≈ 0.255 µM) | 0.025 (≈ 0.0638 µM) | 0.1 (≈ 0.255 µM) | 0.006 (≈ 0.0153 µM) | 0.025 (≈ 0.0638 µM) | 0.006 (≈ 0.0153 µM) | – | Urinary recovery (Rattus norvegicus [3]): 7%; Cmax [4]: 3400 ng/mL; dose excreted [6]: 7% |
| 0.006 (≈ 0.0156 µM) | NC1CCN(c2c(F)cc3c(=O)c(C(=O)O)cn([C@@H]4C[C@@H]4F)c3c2Cl)C1 (single isomer, unassigned) | 0.05 (≈ 0.13 µM) | – | 0.05 (≈ 0.13 µM) | 0.1 (≈ 0.261 µM) | – | 0.2 (≈ 0.521 µM) | 0.006 (≈ 0.0156 µM) | 0.025 (≈ 0.0651 µM) | 0.006 (≈ 0.0156 µM) | – | dose excreted [8]: 12%; MIC (Staphylococcus aureus [9]): 0.013 µg/mL (≈ 0.0339 µM); Urinary recovery (Rattus norvegicus [10]): 4%; Cmax [4]: 2000 ng/mL; MIC [11]: 0.05 µg/mL (≈ 0.13 µM) |
| – | N[C@@H]1CN(c2c(F)cc3c(=O)c(C(=O)O)cn(C4CC4F)c3c2Cl)CC12CC2 (stereo in doubt; 37) | – | – | – | – | – | – | – | – | – | 0.05 (≈ 0.122 µM) | MIC (Staphylococcus aureus [2]): 0.1 µg/mL (≈ 0.244 µM); MIC (Pseudomonas aeruginosa): 0.39 µg/mL (≈ 0.952 µM); MIC (Streptococcus pyogenes): 0.39 µg/mL (≈ 0.952 µM); MIC [5]: 0.1 µg/mL (≈ 0.244 µM); MIC (Enterobacter cloacae [7]): 0.013 µg/mL (≈ 0.0317 µM); MIC (Enterococcus faecalis): 0.78 µg/mL (≈ 1.9 µM); MIC (Proteus vulgaris): 0.025 µg/mL (≈ 0.061 µM); MIC (Escherichia coli): 0.006 µg/mL (≈ 0.0146 µM); MIC (Serratia marcescens): 0.1 µg/mL (≈ 0.244 µM) |
| – | N[C@@H]1CN(c2c(F)cc3c(=O)c(C(=O)O)cn(C4CC4F)c3c2Cl)CC12CC2 (stereo in doubt; 38) | – | – | – | – | – | – | – | 0.2 (≈ 0.488 µM) | – | 0.2 (≈ 0.488 µM) | MIC (Staphylococcus aureus [2]): 0.78 µg/mL (≈ 1.9 µM); MIC (Pseudomonas aeruginosa): 1.56 µg/mL (≈ 3.81 µM); MIC (Streptococcus pyogenes): 3.13 µg/mL (≈ 7.64 µM); MIC [5]: 0.78 µg/mL (≈ 1.9 µM); MIC (Enterobacter cloacae [7]): 0.2 µg/mL (≈ 0.488 µM); MIC (Enterococcus faecalis): 3.13 µg/mL (≈ 7.64 µM); MIC (Proteus vulgaris): 0.1 µg/mL (≈ 0.244 µM); MIC (Escherichia coli): 0.05 µg/mL (≈ 0.122 µM) |
| – | N[C@H]1CN(c2c(F)cc3c(=O)c(C(=O)O)cn(C4CC4F)c3c2Cl)CC12CC2 (stereo in doubt; 39) | – | – | – | – | – | – | – | – | – | 0.39 (≈ 0.952 µM) | MIC (Staphylococcus aureus [2]): 0.78 µg/mL (≈ 1.9 µM); MIC (Pseudomonas aeruginosa): 1.56 µg/mL (≈ 3.81 µM); MIC [5]: 0.78 µg/mL (≈ 1.9 µM); MIC (Enterobacter cloacae [7]): 0.1 µg/mL (≈ 0.244 µM); MIC (Enterococcus faecalis): 6.25 µg/mL (≈ 15.3 µM); MIC (Proteus vulgaris): 0.1 µg/mL (≈ 0.244 µM); MIC (Escherichia coli): 0.05 µg/mL (≈ 0.122 µM); MIC (Serratia marcescens): 0.39 µg/mL (≈ 0.952 µM) |
| – | N[C@H]1CN(c2c(F)cc3c(=O)c(C(=O)O)cn(C4CC4F)c3c2Cl)CC12CC2 (stereo in doubt; 40) | – | – | – | > 12.5 | – | > 12.5 | – | 0.78 (≈ 1.9 µM) | – | 1.56 (≈ 3.81 µM) | MIC (Staphylococcus aureus [2]): 3.13 µg/mL (≈ 7.64 µM); MIC (Pseudomonas aeruginosa): 6.25 µg/mL (≈ 15.3 µM); MIC [5]: 3.13 µg/mL (≈ 7.64 µM); MIC (Enterobacter cloacae [7]): 0.78 µg/mL (≈ 1.9 µM); MIC (Proteus vulgaris): 0.39 µg/mL (≈ 0.952 µM); MIC (Escherichia coli): 0.39 µg/mL (≈ 0.952 µM) |
| – | O=C(O)c1cn(C2CC2)c2cc(N3CCNCC3)c(F)cc2c1=O [CIPROFLOXACIN] | 0.05 (≈ 0.151 µM) | – | 0.1 (≈ 0.302 µM) | 1.56 (≈ 4.71 µM) | 0.2 (≈ 0.604 µM) | 1.56 (≈ 4.71 µM) | 0.013 (≈ 0.0392 µM) | 0.05 (≈ 0.151 µM) | – | – | MIC (Staphylococcus aureus [12]): 0.1 µg/mL (≈ 0.302 µM) |

| SMILES | MIC (Escherichia coli; [20]) [µg/mL] | MIC (Klebsiella pneumoniae; [13]) [µg/mL] | MIC (Staphylococcus aureus [2]; [14]) [µg/mL] | MIC (Pseudomonas aeruginosa; [15]) [µg/mL] | MIC (Streptococcus pyogenes; [16]) [µg/mL] | MIC [5, 17] [µg/mL] | MIC (Enterococcus faecalis; [18]) [µg/mL] | MIC (Proteus vulgaris; [19]) [µg/mL] | MIC (Serratia marcescens; [21]) [µg/mL] | MIC (Enterobacter cloacae [7]; [22]) [µg/mL] | MIC (Klebsiella pneumoniae) [µg/mL] | further results |
| --- | --- | --- | --- | --- | --- | --- | --- | --- | --- | --- | --- | --- |
| N[C@H]1CN(c2c(F)cc3c(=O)c(C(=O)O)cn(C4C[C@H]4F)c3c2Cl)CC12CC2 (single isomer, unassigned) | 0.05 (≈ 0.122 µM) | 0.1 (≈ 0.244 µM) | 0.1 (≈ 0.244 µM) | 0.78 (≈ 1.9 µM) | 0.2 (≈ 0.488 µM) | 0.2 (≈ 0.488 µM) | 0.39 (≈ 0.952 µM) | 0.05 (≈ 0.122 µM) | 0.5 (≈ 1.22 µM) | 0.05 (≈ 0.122 µM) | – | – |
| N[C@H]1CN(c2c(F)cc3c(=O)c(C(=O)O)cn(C4C[C@@H]4F)c3c2Cl)CC12CC2 (single isomer, unassigned) | 0.025 (≈ 0.061 µM) | 0.05 (≈ 0.122 µM) | 0.1 (≈ 0.244 µM) | 0.39 (≈ 0.952 µM) | 0.1 (≈ 0.244 µM) | 0.1 (≈ 0.244 µM) | 0.78 (≈ 1.9 µM) | 0.025 (≈ 0.061 µM) | 0.1 (≈ 0.244 µM) | 0.025 (≈ 0.061 µM) | – | – |
| N[C@@H]1CN(c2c(F)cc3c(=O)c(C(=O)O)cn(C4C[C@H]4F)c3c2Cl)CC12CC2 (single isomer, unassigned) | 0.013 (≈ 0.0317 µM) | 0.025 (≈ 0.061 µM) | 0.025 (≈ 0.061 µM) | 0.2 (≈ 0.488 µM) | 0.2 (≈ 0.488 µM) | 0.05 (≈ 0.122 µM) | 0.2 (≈ 0.488 µM) | 0.013 (≈ 0.0317 µM) | 0.05 (≈ 0.122 µM) | 0.013 (≈ 0.0317 µM) | – | – |
| NC1CN(c2c(F)cc3c(=O)c(C(=O)O)cn([C@@H]4C[C@@H]4F)c3c2Cl)CC12CC2 (single isomer, unassigned) [SITAFLOXACIN ANHYDROUS] | < 0.006 | 0.025 (≈ 0.061 µM) | 0.013 (≈ 0.0317 µM) | 0.05 (≈ 0.122 µM) | 0.05 (≈ 0.122 µM) | 0.025 (≈ 0.061 µM) | 0.1 (≈ 0.244 µM) | 0.006 (≈ 0.0146 µM) | 0.025 (≈ 0.061 µM) | 0.006 (≈ 0.0146 µM) | – | Urinary recovery (Rattus norvegicus [3]): 1%; Cmax [4]: 2600 ng/mL; dose excreted [6]: 22% |
